{"source": "ChEMBL document CHEMBL1142160", "about": "“Overexpression and initial characterization of the chromosomal aminoglycoside 3'-O-phosphotransferase APH(3')-IIb from Pseudomonas aeruginosa” (2007)", "type_in_all_cases": "functional", "key": {"[1]": {"system": "Escherichia coli", "assay": "Antibacterial activity against Escherichia coli BL21(DE3) expressing Pseudomonas aeruginosa APH(3')-2b"}, "[2]": {"system": "Escherichia coli", "assay": "Antibacterial activity against Escherichia coli BL21(DE3)"}, "[3]": {"system": "Pseudomonas aeruginosa", "assay": "Antibacterial activity against Pseudomonas aeruginosa ATCC 27853"}}, "data": [{"sequence": "GENTAMICIN", "values": [{"measurement": "MIC", "setting": "[1]", "value": 6, "unit": "µg/mL"}, {"measurement": "MIC", "setting": "[2]", "value": 6, "unit": "µg/mL"}, {"measurement": "MIC", "setting": "[3]", "value": 2, "unit": "µg/mL"}]}]}
